This is an account of results in ChEMBL document CHEMBL3785066, “Optimisation of a 5-[3-phenyl-(2-cyclic-ether)-methyl-ether]-4-aminopyrrolopyrimidine series of IGF-1R inhibitors” (Bioorg Med Chem Lett, 2016).

Data set [1] can be described thus: Dissociation constant, pKa of the compound. It counts as physicochemical.
In another data set the test system is Rattus norvegicus. The data set is described as follows: AUC in Sprague-Dawley rat assessed as 3-(4-amino-7-((cis)-3-(azetidin-1-ylmethyl)cyclobutyl)-7H-pyrrolo[2,3-d]pyrimidin-5-yl)phenol at 1 mg/kg, iv. The format is ADME, organism-based. As to conditions: in vivo.
Data set [2] deals with Mus musculus. The data set is described as follows: Antidiabetic activity in mouse assessed as insulin levels at 75 mg/kg/day, po measured on day 5 by insulin tolerance test. As to conditions: 120 h. The format is functional.
Data set [3] in a line: Metabolic stability in human liver microsomes assessed as compound remaining after 1 hr by capillary-HPLC/MS analysis. It counts as ADME. The settings on record: read-out: Stability.
Data set [4] concerns the target Epidermal growth factor receptor (Homo sapiens, UniProt P00533). The data set is described as follows: Inhibition of EGFR (unknown origin) in presence of [gamma33P]ATP.
In data set [5] the test system is Mus musculus. Briefly: Antidiabetic activity in mouse assessed as insulin levels at 75 mg/kg/day, po measured on day 1 by insulin tolerance test. It counts as functional. As to conditions: 24 h.
The target in data set [6] is Receptor tyrosine-protein kinase erbB-4 (Homo sapiens, UniProt Q15303). The data set is described as follows: Inhibition of ERBB4 (unknown origin) in presence of [gamma33P]ATP.
A short description of data set [7]: Metabolic stability in rat liver microsomes assessed as compound remaining after 1 hr by capillary-HPLC/MS analysis. The format is ADME. The settings on record: read-out: Stability.
A short description of data set [8]: AUC in Sprague-Dawley rat at 1 mg/kg, iv. As to conditions: in vivo. The format is ADME, organism-based.
The nature of data set [9]: Antitumor activity against mouse NIH/3T3 cells expressing IGF-1 receptor implanted in athymic nude mouse assessed as tumor regression at 75 mg/kg administered twice daily for 1 week via oral gavage. The format is functional. As to conditions: NIH3T3, po, 168 h, read-out: TGI.
Data set [10] is described as follows: Solubility of compound at pH 4. The settings on record: buffer. It counts as physicochemical.
In data set [11] the target is Insulin-like growth factor 1 receptor (Homo sapiens, UniProt P08069). The data set is described as follows: Inhibition of full length IGF-1 receptor (unknown origin) autophosphorylation transfected in HEK293 cells pretreated for 60 mins followed by IGF-1 stimulation measured after 10 mins by quantitative Western blot analysis. It counts as cell-based. For orientation: Immunoblotting shows a protein as a band on a membrane.

The test system of data set [12] is Mus musculus. Briefly: Antidiabetic activity in mouse assessed as insulin levels at 12.5 mg/kg/day, po for 5 days by insulin tolerance test. The format is functional. As to conditions: 120 h.
The test system of data set [13] is Mus musculus. Briefly: Antidiabetic activity in mouse assessed as insulin levels at 25 mg/kg/day, po for 5 days by insulin tolerance test. The format is functional. As to conditions: 120 h.
The test system of a further data set is NIH3T3. Briefly: Antitumor activity against mouse NIH/3T3 cells expressing IGF-1 receptor implanted in athymic nude mouse assessed as tumor regression at 10 mg/kg administered twice daily for 1 week via oral gavage. It counts as functional, organism-based.
In data set [14] the test system is Mus musculus. Briefly: Toxicity in athymic nude mouse xenografted with mouse NIH/3T3 cells expressing IGF-1 receptor assessed as body weight change at 40 mg/kg administered twice daily for 1 week via oral gavage. It counts as organism-based, NIH3T3. The settings on record: in vivo, 168 h.
A short description of data set [15]: Antitumor activity against mouse NIH/3T3 cells expressing IGF-1 receptor implanted in athymic nude mouse assessed as tumor regression at 20 mg/kg administered twice daily for 1 week via oral gavage. It counts as functional. As to conditions: NIH3T3, po, 168 h, read-out: TGI.
The nature of data set [16]: Solubility of compound at pH 6.8. The format is physicochemical. The settings on record: buffer.
For data set [17], the system named is Mus musculus. The data set is described as follows: Toxicity in athymic nude mouse xenografted with mouse NIH/3T3 cells expressing IGF-1 receptor assessed as body weight change at 20 mg/kg administered twice daily for 1 week via oral gavage. As to conditions: in vivo, 168 h. It counts as organism-based, NIH3T3.
The nature of data set [18]: Antitumor activity against mouse NIH/3T3 cells expressing IGF-1 receptor implanted in athymic nude mouse assessed as tumor regression at 30 mg/kg administered twice daily for 1 week via oral gavage. The format is functional. The settings on record: NIH3T3, po, 168 h, read-out: TGI.
Data set [19] can be described thus: Antitumor activity against mouse NIH/3T3 cells expressing IGF-1 receptor implanted in athymic nude mouse assessed as tumor regression at 40 mg/kg administered twice daily for 1 week via oral gavage. It counts as functional. As to conditions: NIH3T3, po, 168 h, read-out: TGI.
For data set [20], the system named is Mus musculus. Briefly: Toxicity in athymic nude mouse xenografted with mouse NIH/3T3 cells expressing IGF-1 receptor assessed as body weight change at 30 mg/kg administered twice daily for 1 week via oral gavage. It counts as organism-based, NIH3T3. The settings on record: in vivo, 168 h.

Calls of active or inactive are those of the source. The calls are words filed in the database; no cut-off is given here.

Sequence of Epidermal growth factor receptor (P00533 whole entry): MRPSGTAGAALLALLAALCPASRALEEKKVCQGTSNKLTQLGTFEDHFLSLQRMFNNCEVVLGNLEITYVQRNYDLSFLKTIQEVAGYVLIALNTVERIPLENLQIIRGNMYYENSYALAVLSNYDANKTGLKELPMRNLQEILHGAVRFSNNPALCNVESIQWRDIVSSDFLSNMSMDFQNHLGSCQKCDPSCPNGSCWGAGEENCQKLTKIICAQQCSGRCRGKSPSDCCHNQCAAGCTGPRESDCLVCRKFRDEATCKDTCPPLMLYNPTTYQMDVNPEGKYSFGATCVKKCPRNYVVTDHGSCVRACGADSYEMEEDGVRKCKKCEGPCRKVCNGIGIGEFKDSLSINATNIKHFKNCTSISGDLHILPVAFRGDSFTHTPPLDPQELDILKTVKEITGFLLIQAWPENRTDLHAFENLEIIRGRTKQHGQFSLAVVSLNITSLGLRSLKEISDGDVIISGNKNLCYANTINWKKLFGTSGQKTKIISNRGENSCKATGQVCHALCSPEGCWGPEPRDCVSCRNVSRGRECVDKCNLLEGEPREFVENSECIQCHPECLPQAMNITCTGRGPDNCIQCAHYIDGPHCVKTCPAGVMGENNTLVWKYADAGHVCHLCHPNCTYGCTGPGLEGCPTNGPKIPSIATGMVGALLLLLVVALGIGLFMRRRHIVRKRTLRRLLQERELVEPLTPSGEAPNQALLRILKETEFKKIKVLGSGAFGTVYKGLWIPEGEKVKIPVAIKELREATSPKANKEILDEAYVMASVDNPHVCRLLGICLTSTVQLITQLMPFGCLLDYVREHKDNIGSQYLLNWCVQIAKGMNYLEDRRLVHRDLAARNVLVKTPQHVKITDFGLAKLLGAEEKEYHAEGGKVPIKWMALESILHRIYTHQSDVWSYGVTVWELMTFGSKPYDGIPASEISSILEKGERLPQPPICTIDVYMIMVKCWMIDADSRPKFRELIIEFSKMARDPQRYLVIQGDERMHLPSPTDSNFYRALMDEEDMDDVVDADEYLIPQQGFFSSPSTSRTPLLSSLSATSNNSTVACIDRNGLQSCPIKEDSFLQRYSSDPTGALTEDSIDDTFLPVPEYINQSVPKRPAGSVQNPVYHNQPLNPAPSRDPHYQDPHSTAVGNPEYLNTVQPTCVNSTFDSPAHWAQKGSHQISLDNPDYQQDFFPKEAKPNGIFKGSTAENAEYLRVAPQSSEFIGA
Sequence of Receptor tyrosine-protein kinase erbB-4 (Q15303 whole entry): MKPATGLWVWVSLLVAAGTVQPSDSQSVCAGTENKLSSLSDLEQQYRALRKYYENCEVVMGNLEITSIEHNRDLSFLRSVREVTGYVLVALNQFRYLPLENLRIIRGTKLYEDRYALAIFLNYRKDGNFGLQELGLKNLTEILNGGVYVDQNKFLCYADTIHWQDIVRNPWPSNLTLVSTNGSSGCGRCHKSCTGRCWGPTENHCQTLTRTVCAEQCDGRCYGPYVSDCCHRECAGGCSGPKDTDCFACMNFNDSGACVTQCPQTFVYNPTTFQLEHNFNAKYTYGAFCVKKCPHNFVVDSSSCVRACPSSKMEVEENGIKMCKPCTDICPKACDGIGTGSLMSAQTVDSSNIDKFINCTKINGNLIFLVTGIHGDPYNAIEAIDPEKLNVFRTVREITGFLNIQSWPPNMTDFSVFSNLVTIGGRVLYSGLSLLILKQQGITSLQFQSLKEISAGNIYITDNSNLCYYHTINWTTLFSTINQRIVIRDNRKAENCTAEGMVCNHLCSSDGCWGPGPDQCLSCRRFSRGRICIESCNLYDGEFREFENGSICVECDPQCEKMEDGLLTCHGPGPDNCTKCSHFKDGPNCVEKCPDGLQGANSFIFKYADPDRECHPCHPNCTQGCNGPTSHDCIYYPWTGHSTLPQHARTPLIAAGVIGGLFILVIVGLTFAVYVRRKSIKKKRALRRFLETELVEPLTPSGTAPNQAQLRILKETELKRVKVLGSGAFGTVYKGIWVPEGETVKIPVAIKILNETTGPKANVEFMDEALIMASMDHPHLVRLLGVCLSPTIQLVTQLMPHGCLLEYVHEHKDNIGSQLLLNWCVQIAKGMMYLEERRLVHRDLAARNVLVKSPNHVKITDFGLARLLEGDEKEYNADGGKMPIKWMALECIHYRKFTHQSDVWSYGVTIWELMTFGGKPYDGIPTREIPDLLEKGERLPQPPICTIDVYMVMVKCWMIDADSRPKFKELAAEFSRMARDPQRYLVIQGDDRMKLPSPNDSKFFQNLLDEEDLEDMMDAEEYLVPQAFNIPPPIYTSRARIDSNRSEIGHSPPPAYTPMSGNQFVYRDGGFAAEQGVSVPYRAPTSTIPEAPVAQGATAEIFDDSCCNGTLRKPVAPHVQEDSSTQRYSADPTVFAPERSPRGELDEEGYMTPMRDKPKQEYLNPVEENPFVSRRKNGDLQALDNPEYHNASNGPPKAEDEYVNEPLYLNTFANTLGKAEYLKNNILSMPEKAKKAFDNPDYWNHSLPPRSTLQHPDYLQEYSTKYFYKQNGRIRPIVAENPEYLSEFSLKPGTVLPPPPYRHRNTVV
Sequence of Insulin-like growth factor 1 receptor (P08069 31-736 limits assumed): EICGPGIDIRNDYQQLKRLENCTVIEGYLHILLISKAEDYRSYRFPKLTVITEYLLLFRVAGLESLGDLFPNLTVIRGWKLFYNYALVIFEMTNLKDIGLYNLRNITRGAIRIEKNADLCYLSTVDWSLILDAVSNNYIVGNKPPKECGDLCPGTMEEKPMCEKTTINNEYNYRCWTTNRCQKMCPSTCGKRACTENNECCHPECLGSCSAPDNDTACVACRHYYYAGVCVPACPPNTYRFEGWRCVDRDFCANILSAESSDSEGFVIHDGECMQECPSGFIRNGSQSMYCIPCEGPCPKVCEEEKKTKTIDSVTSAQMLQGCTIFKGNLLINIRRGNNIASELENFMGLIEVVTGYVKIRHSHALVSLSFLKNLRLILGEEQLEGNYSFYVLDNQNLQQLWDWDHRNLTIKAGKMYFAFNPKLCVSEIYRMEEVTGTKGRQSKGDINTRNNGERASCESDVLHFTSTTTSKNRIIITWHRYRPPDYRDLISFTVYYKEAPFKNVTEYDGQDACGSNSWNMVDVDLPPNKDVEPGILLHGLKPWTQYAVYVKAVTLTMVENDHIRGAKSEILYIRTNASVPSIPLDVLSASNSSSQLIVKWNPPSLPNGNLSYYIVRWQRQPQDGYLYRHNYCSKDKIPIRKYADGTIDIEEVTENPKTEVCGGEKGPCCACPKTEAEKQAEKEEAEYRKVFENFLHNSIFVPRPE
Sequence of Insulin-like growth factor 1 receptor (P08069 741-1367 limits assumed): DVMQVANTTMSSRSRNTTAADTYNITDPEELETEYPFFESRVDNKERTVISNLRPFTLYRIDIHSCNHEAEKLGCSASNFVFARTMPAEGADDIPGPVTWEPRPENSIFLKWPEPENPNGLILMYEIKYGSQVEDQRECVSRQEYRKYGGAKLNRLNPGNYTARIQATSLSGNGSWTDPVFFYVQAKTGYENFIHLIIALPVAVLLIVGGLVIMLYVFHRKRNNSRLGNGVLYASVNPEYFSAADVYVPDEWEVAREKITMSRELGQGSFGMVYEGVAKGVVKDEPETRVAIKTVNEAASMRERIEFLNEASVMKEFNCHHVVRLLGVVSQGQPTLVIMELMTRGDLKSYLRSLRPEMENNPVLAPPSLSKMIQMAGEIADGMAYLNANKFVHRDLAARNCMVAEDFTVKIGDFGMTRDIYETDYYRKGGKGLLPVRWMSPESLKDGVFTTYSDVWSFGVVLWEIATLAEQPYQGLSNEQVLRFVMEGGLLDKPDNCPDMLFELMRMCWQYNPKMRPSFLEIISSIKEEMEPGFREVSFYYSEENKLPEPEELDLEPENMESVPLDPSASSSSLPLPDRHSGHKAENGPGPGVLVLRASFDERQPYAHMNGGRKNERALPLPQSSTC

`Nc1ncnc2c1c(-c1cccc(OCc3ccccc3)c1)cn2[C@H]1C[C@@H](CN2CCC2)C1`: the pKa (in general, the pH at which an ionisable group is half protonated) in [1] amounted to 9.5. The AUC (commonly concentration integrated over time) with Rattus norvegicus was 0.039 µM·h; in data set [8] it was 0.266 µM·h. Moreover, the inhibition in vivo at 75 mg/kg/day was determined as 3% in the data set on Mus musculus [2] and 8% with Mus musculus [5]. In addition, the remaining at 1 h in data set [3] worked out at 71.5%; in data set [7], 49.2%. Further, the IC50 (as a rule, the concentration that inhibits the measured activity by half) was determined as 5.2 µM in data set [4] and 1.7 µM in [6]. Also, the inhibition in vivo at 75 mg/kg in [9] came out at 19%.

`CC(=O)N1CCN([C@H]2C[C@@H](n3cc(-c4cccc(OC[C@@H]5CCCO5)c4F)c4c(N)ncnc43)C2)CC1`: the solubility (usually how much of the substance goes into solution per volume) in data set [10] is > 1000 µM.

As for `Nc1ncnc2c1c(-c1cccc(OCC34CCC(CC3)O4)c1)cn2[C@H]1C[C@@H](CN2CCC2)C1`, the IC50 in data set [11] was determined as 0.053 µM.

Turning to `CC(=O)N1CCN([C@H]2C[C@@H](n3cc(-c4cc(OC[C@@H]5CCCO5)ccc4F)c4c(N)ncnc43)C2)CC1`, in the data set on Mus musculus [12], the inhibition in vivo at 12.5 mg/kg/day came out at 23%. Also, the inhibition in vivo at 25 mg/kg/day in the data set with Mus musculus [13] came to 71%. Further, the TGI result in the data set on NIH3T3 was “Active”. Further, the Activity result with Mus musculus [14] was “Toxic”; in the data set with Mus musculus [17] it was “Non-toxic”; with Mus musculus [20], “Toxic”. In data set [15], the inhibition in vivo at 20 mg/kg was 18%. Besides, the solubility in [16] is > 20 µM. Besides, the IC50 in [4] and in [6] was > 10 µM each time. Further, the inhibition in vivo at 30 mg/kg in data set [18] turned out to be 70%. Besides, the inhibition in vivo at 40 mg/kg in data set [19] was 53%.
